Columns and labels:
[1] = test system: severe alcohol-responsive posthypoxic myoclonus; assay: Single-patient open-label dose-finding trial of GHB, blinded Unified Myoclonus Rating Scale (UMRS); type: in vivo, human; conditions: for UMRS I (Self Assessment) score: max 44, 0 gm score 33; for UMRS VIII (Severity) score: max 3, 0 gm score 2; for UMRS I (Global Disability) score / UMRS VI (MD Global Disab.) score: max 4, 0 gm score 3; for UMRS III (Stimulus-Sens.) score: max 17, 0 gm score 12; for UMRS V (Funct. Performance) score: max 20, 0 gm score 20; for UMRS II (Myoclonus @ Rest) score: max 128, 0 gm score 21; for UMRS IV (Action Myoclonus) score: max 160, 0 gm score 108; for UMRS VII (Neg. Myoclonus) score: present (1) or absent (0), 0 gm score 1
Experimental: An open-label, dose-finding, blinded rating trial of GHB in a single patient with severe, debilitating alcohol-responsive posthypoxic myoclonus refractory to treatment with standard anti-myoclonic agents was conduced. […] Intensity and severity of myoclonus was measured using the Unified Myoclonus Rating Scale (UMRS), a non-invasive clinical rating scale. In addition, the patient was videotaped while the UMRS was performed, so that myoclonus could be scored by a blinded rater.
Given the dramatic response to alcohol, a single-patient, open-label, dose-ranging trial to assess the tolerability and efficacy of GHB (Xyrem®, Orphan Medical, Inc.) as a treatment for alcohol-responsive posthypoxic myoclonus was designed, which was approved by The Columbia University Medical Center Institutional Review Board. After obtaining informed consent, they were videotaped during performance of the Unified Myoclonus Rating Scale (UMRS). The UMRS is a validated clinical rating instrument that measures the severity and intensity of myoclonus and has been used in other trials of anti-myoclonic agents. Frucht S. J., et al., Adv Neurology Vol. 89 Lippincott Williams and Wilkins, Philadelphia, 2002:361-376. The scale consists of eight sections: section I: patient questionnaire (11 items); section II: myoclonus at rest (frequency and amplitude, 16 items); section III: stimulus-sensitive myoclonus (17 items); section IV: severity of myoclonus with action (frequency and amplitude, 20 items); section V: performance on functional tests (5 items); section VI: physician rating of patient's global disability (1 item); section VII: presence of negative myoclonus (1 item); section VIII: severity of negative myoclonus (1 item). Each item is rated on a scale of 0 to 4, with higher scores assigned to myoclonus of greater severity or frequency. For section III stimulus-sensitivity is either present (1) or absent (0); section VII negative myoclonus either present (1) or absent (0); and section VIII negative myoclonus absent (0) to severe (3).
(§1) All office visits and the UMRS scale were performed by the supervisory physician. The patient came to the office for five visits, each separated by two weeks (time 0, 2 weeks, 4 weeks, 6 weeks and 8 weeks). At each visit, the physician examined the patient, and inquired about any adverse events. The physician performed the UMRS while the patient was videotaped. Xyrem® was dispensed by the physician at each visit.
(§2) At the initial visit the UMRS was performed and videotaped, 1 gm of GHB was administered by mouth, and they were monitored in the office for one hour. They then took 1 gm twice daily for two weeks, at which time they returned to the office. One hour after receiving 2 grams of GHB, the UMRS was performed and videotaped and for the next two weeks they took 2 grams twice daily. Two weeks later, the UMRS was performed and videotaped one hour after receiving 3 grams of GHB, and after two weeks of 3 grams twice daily, the same procedure was performed after receiving 4 grams in the office. After taking 4 grams twice daily for two weeks, they returned for UMRS videotaping, and the decision was made to continue the target dose of 4 gm twice daily.
A movement disorder neurologist blinded to the trial design scored videotapes of the baseline visit, 2 gm, 3 gm, 4 gm (first) and 4 gm (second) visits in random order. The blinded rater was not provided with treatment scores of section I of the UMRS (patient self-assessment) in order to maintain the rating blind. Scores for each section were calculated as described previously. Frucht S. J., et al., Adv Neurology Vol. 89. Lippincott Williams and Wilkins, Philadelphia, 2002:361-376.

[2] = Single-patient GHB trial: tolerability / adverse events; type: in vivo, human
Experimental: as §1, §2
The clinical trial was designed with a very slow titration schedule, in order to prevent possible side effects such as sedation, worsening of ataxia or orthostasis. Like most forms of myoclonus, posthypoxic myoclonus disappears during sleep and it is therefore necessary to administer the drug during waking hours in order to observe its effects.

O=C([O-])CCCO.[Na+] [GHB, 4-hydroxybutanoic acid monosodium salt]
resting and stimulus-sensitive myoclonus ([1]; 2 gm twice daily): markedly improved
UMRS I (Self Assessment) score ([1]; 2 gm, 1 h after oral dose): 31
UMRS VIII (Severity) score ([1]; 2 gm): 2
UMRS I (Global Disability) score ([1]; 2 gm): 3
UMRS VI (MD Global Disab.) score ([1]; 2 gm): 2
UMRS III (Stimulus-Sens.) score ([1]; 2 gm): 5
UMRS V (Funct. Performance) score ([1]; 2 gm): 10
UMRS II (Myoclonus @ Rest) score ([1]; 2 gm): 8
UMRS IV (Action Myoclonus) score ([1]; 2 gm): 70
UMRS VII (Neg. Myoclonus) score ([1]; 2 gm): 1
resting and stimulus-sensitive myoclonus ([1]; 3 gm twice daily): virtually disappeared
UMRS VIII (Severity) score ([1]; 3 gm): 2
UMRS I (Global Disability) score ([1]; 3 gm): 2
UMRS VI (MD Global Disab.) score ([1]; 3 gm): 2
UMRS III (Stimulus-Sens.) score ([1]; 3 gm): 1
UMRS V (Funct. Performance) score ([1]; 3 gm): 8
UMRS I (Self Assessment) score ([1]; 3 gm): 25
UMRS II (Myoclonus @ Rest) score ([1]; 3 gm): 3
UMRS IV (Action Myoclonus) score ([1]; 3 gm): 64
UMRS VII (Neg. Myoclonus) score ([1]; 3 gm): 1
UMRS VIII (Severity) score ([1]; 4 gm (2nd visit)): 2
UMRS I (Global Disability) score ([1]; 4 gm (2nd visit)): 2
UMRS VI (MD Global Disab.) score ([1]; 4 gm (2nd visit)): 2
UMRS III (Stimulus-Sens.) score ([1]; 4 gm (2nd visit)): 3
UMRS V (Funct. Performance) score ([1]; 4 gm (2nd visit)): 4
UMRS I (Self Assessment) score ([1]; 4 gm (2nd visit)): 15
UMRS II (Myoclonus @ Rest) score ([1]; 4 gm (2nd visit)): 1
UMRS IV (Action Myoclonus) score ([1]; 4 gm (2nd visit)): 58
UMRS VII (Neg. Myoclonus) score ([1]; 4 gm (2nd visit)): 1
UMRS VIII (Severity) score ([1]; 4 gm): 2
UMRS I (Global Disability) score ([1]; 4 gm): 2
UMRS VI (MD Global Disab.) score ([1]; 4 gm): 2
UMRS III (Stimulus-Sens.) score ([1]; 4 gm): 1
UMRS V (Funct. Performance) score ([1]; 4 gm): 7
UMRS I (Self Assessment) score ([1]; 4 gm): 18
UMRS II (Myoclonus @ Rest) score ([1]; 4 gm): 1
UMRS IV (Action Myoclonus) score ([1]; 4 gm): 53
UMRS VII (Neg. Myoclonus) score ([1]; 4 gm): 1
myoclonus at rest and stimulus-sensitive myoclonus ([1]; UMRS and blinded video rating, divided doses during the day): complete resolution
duration of benefit ([1]; after the first 2 gm dose): approximately 3 hours
time at which benefit peaked ([1]; after the first 2 gm dose): one
time to marked diminution of myoclonus at rest and stimulus-sensitivity ([1]; after the first 2 gm dose): ≤ 20 min
change in clinical examination ([1]; after the initial 1 gm dose): Little difference
time of peak effect ([1]; each dose greater than or equal to 2 gm): one
negative myoclonus, blinded videotape review ([1]; human, in vivo): did not confirm the examiner's impression that negative myoclonus improved
improvement of functional performance (section V) ([1]; writing, spiral copying, pouring, using a spoon): 80%
adverse effect reported by patient ([2]; after the first 1 gm dose): slight dizziness
tolerability ([2]; divided doses during the day): well tolerated
sedation ([2]; two daytime doses of 4 gm, concurrent clonazepam and levetiracetam): without significant sedation

Reference: patent US20090137565A1, “Method for treatment of movement disorders” (The Trustees of Columbia University in the City of New York, priority 2004, published 2009)
